Measurements as given in patent US6787530B1, “Use of pregnane-diones as analgesic agents” (priority 1996, dated 2004).
“Also recorded” adds a separate entry of the source.

Key:
[1] = Plasma alphadolone and glucuronide metabolite levels after oral capsule; type: in vivo, human
Description: The patients who had alphadolone administered orally to them, had blood samples taken at time 0, the time of drug administration, and at ½ hour intervals for 6 hours This blood was sent off to a laboratory at the Royal Melbourne Institute of Technology for analysis of blood alphadolone levels. It can be seen from Example 5 that no measurable alphadolone was found in the blood of these patients who were reporting useful analgesia with decreased morphine requirements. […] These experiments mean that very little or no free alphadolone was present in these patient's blood, but large quantities of alphadolone was present as the glucuronide metabolite. This evidence supports further our claim that the analgesic effects of alphadolone and alphadolone acetate given by oral and intraperitoneal routes involves activity of metabolites in general and the glucuronide in particular.
All patients had 10 ml of blood taken from a vein immediately prior to the capsule administration and also 30 minutes, one hour, 1½ hours, 2 hours, 3 hours, 4 hours and 6 hours after capsule administration. The blood was placed in heparinised tubes, centrifuged and the plasma decanted for later analysis of blood alphadolone levels by the Key Centre for Applied and Nutritional Toxicology, Royal Melbourne Institute of Technology.
No alphadolone was detected in the plasma. The lower limit of detection was 50 ng/ml. […] In 5 of these patients the metabolite was detected in the first sample taken after the alphadolone capsule had been given.

[2] = tested on: spinal cord GABAA receptors
Description: A study was performed on five rats. Alphadolone ([…]) was suspended in normal saline. The five rats were randomised to receive on two different occasions on two different days either […]. This was a cross-over study such that on the following occasion if a rat had received vehicle on the first occasion then it received alphadolone on the second occasion and vice versa. This dosing was randomised and the observer making measurements of pain thresholds was blinded to the nature of the drug given to these rats. In each experiment, the electrical current threshold in the neck and the tail were measured every five minutes until three stable readings were obtained. Then either vehicle or alphadolone 750 mg per kg suspended in saline was instilled into the stomach via an oesophageal needle. Five minutes later and every five minutes thereafter, electrical current thresholds for nociception were measured in the skin of the tail and neck At 60 minutes 10 pmol of bicuculline in 5 μl 6% dextrose was injected intrathecally down a Portex catheter that had been implanted previously in the lumbar sub arachnoid space to lie adjacent to the most caudal segments of spinal cord responsible for tail innervation.

[3] = tested on: spinal cord GABAA receptors; type: in vivo, rat
Excerpt: Groups of 10 rats were examined for the duration of the loss of righting reflex and loss of coordination in the rotarod test and also for antinociceptive effects in the electrical current threshold test measured in the tail. […] Thus we were able to compare the duration of sedation and anaesthesia and quantity of antinociception following intraperitoneal administration of the neurosteroid mixture and also following the components of the mixture at the doses which were given when the combination was used.
Rats were given a range of doses of alphadolone from 0.1 to 100 mg/kg intraperitoneally. The antinociceptive effect was measured using electrical current in the tail.

[4] = tested on: patients scheduled for knee reconstruction surgery; test: Phase 1 study of oral alphadolone: side effects (sedation, nausea, respiratory depression, disorientation); type: in vivo, human
Description: The study consisted of two phases. The first phase was a dose escalation study. At any time during this phase as well as the second phase, if the patient was randomised to receive placebo then a capsule containing lactose was administered orally at the time of medication. If the patient was randomised to receive alphadolone then the first patient so randomised received 25 mg alphadolone acetate orally. The patient was monitored for efficacy of the medication and side effects. If there were no unacceptable side effects such as respiratory depression or severe sedation or disorientation then the next patient randomised to receive the active treatment received a higher dose. The dose escalation planned was in the order, 25, 50, 100, 250, 500 and 1000 mg. The original plan was to continue dose escalation until unacceptable side effects occurred and then to reduce the dose to go onto the next, second, phase of the study, a double-blind comparison of the dose just below the high dose that produced unacceptable side effects compared with placebo. However, the view of the Ethics Committee was that this was more appropriate to a drug company sponsored trial and they ordered that the trial should switch from the dose escalation phase to the comparison phase when there was clear evidence of efficacy.
No premedication was given. The patients were taken to the operating theatre and subjected to a standardised anaesthetic regime that consisted of a propofol induction followed by a propofol infusion and the muscle relaxant of the anaesthetist's preference The trachea was intubated and lungs ventilated with a mixture of nitrous oxide and oxygen. Morphine 1-2 mg intravenously was given as indicated by normal signs of depth of anaesthesia. The amount of morphine used in the operating theatre was recorded in the case record form. After the end of surgery, the muscle relaxant was reversed with atropine and neostigmine and the patient sent to recovery. In the recovery ward the patient was reintroduced to the patient controlled analgesia machine containing morphine to deliver a dose of 1 mg increments with a lock out time of 5 minutes. The patient spent approximately half an hour in recovery ward and was then sent to the ward. The following observations and measurements were made one hour before, half an hour before, and just before giving the test medication (placebo or alphadolone) orally with 100 ml of water. The observations were continued every half hour thereafter until six hours after the capsule had been given:
Sedation on a four point score none, mild, moderate, unseasonable;
Nausea score rating none, mild, moderate, severe vomiting;
Respiratory depression scores as
none—respiratory rate greater than 10 oxygen saturation greater than 95%
mild—respiratory rate great than 6 and less than 10 oxygen saturation greater than 95%
moderate—respiratory rate less than 6 but oxygen saturation greater than 95%
unreasonable—respiratory rate less than 6 and/or oxygen saturation less than 95%
Light-headedness scored from none (no dizziness), mild (light dizziness but no nystagmus), moderate (feels dizzy and has nystagmus), severe (very dizzy with nausea);
Slurred speech scored as none, mild, moderate, severe;
Presence of disorientation;
Gaze evoked nystagmus scored as none, mild (1-2 jerks), moderate (constant slow jerks), severe (fast jerks and feeling dizzy);
Lack of co-ordination with two tests (a) close eyes touch nose with finger (b) touch 1, 2, 3, 4 fingers in turn with thumb; classified as none (both tests accomplished), mild (both tests accomplished but slowly), moderate (one test achieved after two attempts), severe (failed both tests after two attempts at each).
The total number of 0's, 1's, 2's, 3's and 4's recorded during the six hours after capsule administration were totalled for the five placebo treated and seven alphadolone treated patients and entered into a contingency table (table 2).

[5] = plasma treated with glucuronidase, 250 mg, 5 patients, 500 mg, one patient
[6] = six hours after capsule, 100, 250 and 500 mg orally, n = 7

## CC(=O)OCC(=O)[C@H]1CC[C@H]2[C@@H]3CC[C@H]4C[C@H](O)CC[C@]4(C)[C@H]3C(=O)C[C@]12C [alphadolone, 21-acetoxy-3alpha-hydroxy-5alpha-pregnane-11,20-dione]
[1]; oral capsule, samples up to 6 hours, without glucuronidase treatment
  alphadolone in plasma (lower limit of detection): < 50 ng/mL
[1]; [5]
  alphadolone metabolite (glucuronide) in plasma: microgram/ml concentrations
  alphadolone metabolite in plasma at the 6 hour sampling time point: still present, although decaying
[2]; 750 mg per kg intragastric, suspended in saline, five rats, cross-over vs vehicle
  electrical current threshold in the skin of the tail and the neck: sharp rise in the electrical current threshold
[2]; 750 mg per kg intragastric, five rats
  sedation (observation of the animals): no animals seemed to be sedated in any form whatsoever
[2]; given intragastrically to rats
  antinociception (pain relief): powerful antinociception
[2]; range of doses intragastrically to rats
  sedation: no sedation, even at very large doses
[3]; 0.1 to 100 mg/kg intraperitoneally, rats
  dose response of antinociceptive effect (electrical current in the tail): dose-related increase in antinociceptive effect
[3]; ip, Saffan 2 ml/kg, alphaxalone 18 mg/kg, alphadolone 6 mg/kg, groups of 10 rats
  antinociceptive effects in the electrical current threshold test measured in the tail: all of the antinociceptive effects of the Saffan mixture could be achieved with alphadolone alone
[4]; dose escalation, 25 to 500 mg orally, humans
  side effects: sedation, nausea, disorientation, respiratory depression: No sedation, nausea or disorientation or respiratory depression; also recorded: well tolerated up to a dose of 500 mg orally; also recorded: no sedation or disorientation whatsoever
[4]; n = 7 vs placebo n = 5, P=0.9459 nausea, P=0.8661 sedation
  nausea score and sedation score compared with placebo (chi-square): no significant difference
[4]; [6]
  Nausea score 0 (none), number of scores: 72
  Nausea score 1 (mild), number of scores: 10
  Nausea score 2 (moderate), number of scores: 1
  Sedation score 0 (none), number of scores: 20
  Sedation score 1 (mild), number of scores: 48
  Sedation score 2 (moderate), number of scores: 15
